From US20070128217A1 (priority 2003, published 2007)

Tests used:
[1] = test system: rabbit serum obtained by immunizing a rabbit with the SARS-CoV strain Frankfurt 1; type: binding; design: Binding of a rabbit serum to linear peptides / Binding of a rabbit serum to looped peptides / Rabbit serum linear peptides / Rabbit serum looped peptides / Binding of a rabbit serum to linear peptides of protein N of SARS-CoV Urbani (Rabbit serum linear peptides) / Binding of a rabbit serum to looped/cyclic peptides of protein N of SARS-CoV Urbani (Rabbit serum looped peptides): unit not given here
[2] = test system: antibodies in sera from SARS patients (sera 1a, 1b, 2, 6, 37, 62, London, SARS-yellow, SARS-green); type: binding, human; design: Binding of serum 6 to linear peptides of protein X1 of SARS-CoV Urbani / Binding of serum 37 to linear peptides of protein X1 of SARS-CoV Urbani / Binding of serum 6 to looped/cyclic peptide (PEPSCAN-ELISA) / Binding of serum 37 to looped/cyclic peptide (PEPSCAN-ELISA) / Binding of serum 37 to looped/cyclic peptides of protein X1 of SARS-CoV Urbani / Binding of serum 6 to linear peptides of protein X2 / Binding of serum 37 to linear peptides of protein X2 / Binding of serum 37 to looped/cyclic peptides of protein X2 of SARS-CoV Urbani / Binding of serum 6 to linear peptides of protein M of SARS-CoV Urbani / Binding of serum 37 to linear peptides of protein M of SARS-CoV Urbani / Binding of serum 6 to looped/cyclic peptides of protein M of SARS-CoV Urbani / Binding of serum 37 to looped/cyclic peptides of protein M of SARS-CoV Urbani / Binding of serum 6 to linear peptides of protein X3 of SARS-CoV Urbani / Binding of serum 37 to linear peptides of protein X3 of SARS-CoV Urbani / Binding of serum 37 to looped/cyclic peptides of protein X3 of SARS-CoV Urbani / Binding of serum 6 to linear peptides of protein X4 of SARS-CoV Urbani / Binding of serum 37 to linear peptides of protein X4 of SARS-CoV Urbani / Binding of serum 37 to looped/cyclic peptides of protein X4 of SARS-CoV Urbani / Binding of serum 6 to linear peptides of protein X5 of SARS-CoV Urbani / Binding of serum 37 to linear peptides of protein X5 of SARS-CoV Urbani / Binding of serum 37 to looped/cyclic peptides of protein X5 of SARS-CoV Urbani / Binding of serum 6 to linear peptides of protein N of SARS-CoV Urbani / Binding of serum 37 to linear peptides of protein N of SARS-CoV Urbani / Binding of serum 6 to linear peptide (PEPSCAN-ELISA) / Binding of serum 1a to looped/cyclic peptides of protein N of SARS-CoV Urbani / Binding of serum 1b to looped/cyclic peptides of protein N of SARS-CoV Urbani / Binding of serum 2 to looped/cyclic peptides of protein N of SARS-CoV Urbani / Binding of serum 6 to looped/cyclic peptides of protein N of SARS-CoV Urbani / Binding of serum 37 to looped/cyclic peptides of protein N of SARS-CoV Urbani / Binding of serum 62 to looped/cyclic peptides of protein N of SARS-CoV Urbani / Binding of serum London to looped/cyclic peptides of protein N of SARS-CoV Urbani / Binding of serum SARS-green to looped/cyclic peptides of protein N of SARS-CoV Urbani: unit not given here
[3] = test system: control sera (pooled serum of ten healthy LUMC hospital workers; commercial negative donor pooled serum from the Dutch bloodbank); type: binding, human

With YSFVSEETGTLIVNS the “Binding of a rabbit serum to linear peptides” value [1] was 0.2, the “Binding of a rabbit serum to looped peptides” value [1] was 0.4 and the “Binding of serum 1a to linear peptides of protein E of SARS-CoV Urbani” value [2] was 0.8. For the same sequence, the “Binding of serum 1a to looped/cyclic peptides of protein E of SARS-CoV Urbani” value [2] was 0.7, the “Binding of serum 1b to linear peptides of protein E of SARS-CoV Urbani” value [2] was 0.7 and the “Binding of serum 1b to looped/cyclic peptides of protein E of SARS-CoV Urbani” value [2] was 0.5. For the same sequence, the “Binding of serum 2 to linear peptides of protein E of SARS-CoV Urbani” value [2] was 0.5, the “Binding of serum 2 to looped/cyclic peptides of protein E of SARS-CoV Urbani” value [2] was 0.7 and the “Binding of serum 6 to linear peptides of protein E of SARS-CoV Urbani” value [2] was 0.5. The “Binding of serum 6 to looped/cyclic peptides of protein E of SARS-CoV Urbani” value [2] was 0.4, the “Binding of serum 37 to linear peptides of protein E of SARS-CoV Urbani” value [2] was 0.6 and the “Binding of serum 37 to looped/cyclic peptides of protein E of SARS-CoV Urbani” value [2] was 0.8. The “Binding of serum 62 to linear peptides of protein E of SARS-CoV Urbani” value [2] was 0.5, the “Binding of serum 62 to looped/cyclic peptides of protein E of SARS-CoV Urbani” value [2] was 0.8 and the “Binding of serum London to linear peptides of protein E of SARS-CoV Urbani” value [2] was 0.7. For the same sequence, the “Binding of serum London to looped/cyclic peptides of protein E of SARS-CoV Urbani” value [2] was 0.4, the “Binding of serum SARS-green to linear peptides of protein E of SARS-CoV Urbani” value [2] was 0.7 and the “Binding of serum SARS-green to looped/cyclic peptides of protein E of SARS-CoV Urbani” value [2] was 0.4. The “Binding of serum SARS-yellow to linear peptides of protein E of SARS-CoV Urbani” value [2] was 0.6, the “Binding of serum SARS-yellow to looped/cyclic peptides of protein E of SARS-CoV Urbani” value [2] was 0.7 and the “Binding of Control Serum Blood-Bank to Looped peptides” value [3] was 0.6. For the same sequence, the “Binding of Control serum Blood-bank to linear peptides” value [3] was 0.7, the “Binding of Control serum LUMC to linear peptides” value [3] was 1.0 and the “Binding of Control serum LUMC to looped peptides” value [3] was 0.8.

In the case of LVTLAILTALRLCAY, the “Binding of a rabbit serum to linear peptides” value [1] is reported as 0.4, the “Binding of a rabbit serum to looped peptides” value [1] is reported as 0.3 and the “Binding of serum 1a to linear peptides of protein E of SARS-CoV Urbani” value [2] is reported as 0.8. The “Binding of serum 1a to looped/cyclic peptides of protein E of SARS-CoV Urbani” value [2] was 0.6, the “Binding of serum 1b to linear peptides of protein E of SARS-CoV Urbani” value [2] was 0.5 and the “Binding of serum 1b to looped/cyclic peptides of protein E of SARS-CoV Urbani” value [2] was 0.5. The “Binding of serum 2 to linear peptides of protein E of SARS-CoV Urbani” value [2] was 0.6, the “Binding of serum 2 to looped/cyclic peptides of protein E of SARS-CoV Urbani” value [2] was 1.0 and the “Binding of serum 6 to linear peptides of protein E of SARS-CoV Urbani” value [2] was 0.7. For the same sequence, the “Binding of serum 6 to looped/cyclic peptides of protein E of SARS-CoV Urbani” value [2] was 0.4, the “Binding of serum 37 to linear peptides of protein E of SARS-CoV Urbani” value [2] was 0.7 and the “Binding of serum 37 to looped/cyclic peptides of protein E of SARS-CoV Urbani” value [2] was 0.7. For the same sequence, the “Binding of serum 62 to linear peptides of protein E of SARS-CoV Urbani” value [2] was 0.7, the “Binding of serum 62 to looped/cyclic peptides of protein E of SARS-CoV Urbani” value [2] was 0.6 and the “Binding of serum London to linear peptides of protein E of SARS-CoV Urbani” value [2] was 0.5. For the same sequence, the “Binding of serum London to looped/cyclic peptides of protein E of SARS-CoV Urbani” value [2] was 0.4, the “Binding of serum SARS-green to linear peptides of protein E of SARS-CoV Urbani” value [2] was 0.3 and the “Binding of serum SARS-green to looped/cyclic peptides of protein E of SARS-CoV Urbani” value [2] was 0.6. The “Binding of serum SARS-yellow to linear peptides of protein E of SARS-CoV Urbani” value [2] was 0.1, the “Binding of serum SARS-yellow to looped/cyclic peptides of protein E of SARS-CoV Urbani” value [2] was 0.4 and the “Binding of Control Serum Blood-Bank to Looped peptides” value [3] was 0.6. For the same sequence, the “Binding of Control serum Blood-bank to linear peptides” value [3] was 0.6, the “Binding of Control serum LUMC to linear peptides” value [3] was 0.3 and the “Binding of Control serum LUMC to looped peptides” value [3] was 0.8.

LLVTLAILTALRLCA was tested, and the “Binding of a rabbit serum to linear peptides” value [1] was 0.5, the “Binding of a rabbit serum to looped peptides” value [1] was 0.8 and the “Binding of serum 1a to linear peptides of protein E of SARS-CoV Urbani” value [2] was 0.8. For the same sequence, the “Binding of serum 1a to looped/cyclic peptides of protein E of SARS-CoV Urbani” value [2] was 0.7, the “Binding of serum 1b to linear peptides of protein E of SARS-CoV Urbani” value [2] was 0.4 and the “Binding of serum 1b to looped/cyclic peptides of protein E of SARS-CoV Urbani” value [2] was 0.1. For the same sequence, the “Binding of serum 2 to linear peptides of protein E of SARS-CoV Urbani” value [2] was 0.5, the “Binding of serum 2 to looped/cyclic peptides of protein E of SARS-CoV Urbani” value [2] was 0.6 and the “Binding of serum 6 to linear peptides of protein E of SARS-CoV Urbani” value [2] was 0.4. For the same sequence, the “Binding of serum 6 to looped/cyclic peptides of protein E of SARS-CoV Urbani” value [2] was 0.4, the “Binding of serum 37 to linear peptides of protein E of SARS-CoV Urbani” value [2] was 0.6 and the “Binding of serum 37 to looped/cyclic peptides of protein E of SARS-CoV Urbani” value [2] was 0.3. For the same sequence, the “Binding of serum 62 to linear peptides of protein E of SARS-CoV Urbani” value [2] was 0.6, the “Binding of serum 62 to looped/cyclic peptides of protein E of SARS-CoV Urbani” value [2] was 0.8 and the “Binding of serum London to linear peptides of protein E of SARS-CoV Urbani” value [2] was 0.5. For the same sequence, the “Binding of serum London to looped/cyclic peptides of protein E of SARS-CoV Urbani” value [2] was 0.4, the “Binding of serum SARS-green to linear peptides of protein E of SARS-CoV Urbani” value [2] was 0.4 and the “Binding of serum SARS-green to looped/cyclic peptides of protein E of SARS-CoV Urbani” value [2] was 0.6. The “Binding of serum SARS-yellow to linear peptides of protein E of SARS-CoV Urbani” value [2] was 0.0, the “Binding of serum SARS-yellow to looped/cyclic peptides of protein E of SARS-CoV Urbani” value [2] was 0.3 and the “Binding of Control Serum Blood-Bank to Looped peptides” value [3] was 0.8. For the same sequence, the “Binding of Control serum Blood-bank to linear peptides” value [3] was 0.7, the “Binding of Control serum LUMC to linear peptides” value [3] was 0.3 and the “Binding of Control serum LUMC to looped peptides” value [3] was 0.8.

AIWNLDVIISSIVRQ was tested, and the “Rabbit serum linear peptides” value [1] was 0.3, the “Rabbit serum looped peptides” value [1] was 0.4 and the “Binding of serum 1a to linear peptides of protein X3 of SARS-CoV Urbani” value [2] was 0.8. The “Binding of serum 1a to looped/cyclic peptides of protein X3 of SARS-CoV Urbani” value [2] was 0.5, the “Binding of serum 1b to linear peptides of protein X3 of SARS-CoV Urbani” value [2] was 0.4 and the “Binding of serum 1b to looped/cyclic peptides of protein X3 of SARS-CoV Urbani” value [2] was 0.5. For the same sequence, the “Binding of serum 2 to linear peptides of protein X3 of SARS-CoV Urbani” value [2] was 0.6, the “Binding of serum 2 to looped/cyclic peptides of protein X3 of SARS-CoV Urbani” value [2] was 0.4 and the “Binding of serum 6 to linear peptides of protein X3 of SARS-CoV Urbani” value [2] was 0.5. The “Binding of serum 6 to looped/cyclic peptides of protein X3 of SARS-CoV Urbani” value [2] was 0.4, the “Binding of serum 37 to linear peptides of protein X3 of SARS-CoV Urbani” value [2] was 0.6 and the “Binding of serum 37 to looped/cyclic peptides of protein X3 of SARS-CoV Urbani” value [2] was 0.6. The “Binding of serum 62 to linear peptides of protein X3 of SARS-CoV Urbani” value [2] was 0.6, the “Binding of serum 62 to looped/cyclic peptides of protein X3 of SARS-CoV Urbani” value [2] was 0.5 and the “Binding of serum London to linear peptides of protein X3 of SARS-CoV Urbani” value [2] was 0.6. The “Binding of serum London to looped/cyclic peptides of protein X3 of SARS-CoV Urbani” value [2] was 0.2, the “Binding of serum SARS-green to linear peptides of protein X3 of SARS-CoV Urbani” value [2] was 0.3 and the “Binding of serum SARS-green to looped/cyclic peptides of protein X3 of SARS-CoV Urbani” value [2] was 0.4. For the same sequence, the “Binding of serum SARS-yellow to linear peptides of protein X3 of SARS-CoV Urbani” value [2] was 0.3, the “Binding of serum SARS-yellow to looped/cyclic peptides of protein X3 of SARS-CoV Urbani” value [2] was 0.6 and the “Binding of Control Serum Blood-Bank to Looped peptides of the protein X3 of SARS-CoV Urbani” value [3] was 0.8. The “Binding of Control serum Blood-bank to linear peptides of the protein X3 of SARS-CoV Urbani” value [3] was 0.7, the “Binding of Control serum LUMC to linear peptides of the protein X3 of SARS-CoV Urbani” value [3] was 0.7 and the “Binding of Control serum LUMC to looped peptides of the protein X3 of SARS-CoV Urbani” value [3] was 0.7.
